From patent publication EP4596548A1, “NURR1 MODULATORS” (Ludwig-Maximilians-Universität, priority 2024, dated 2025)
“Also recorded” adds a separate entry of the source. Where two headings read alike, the source gives them in different places.

Columns and labels:
Nurr1 = Nurr1 (Homo sapiens, UniProt P43354); assay: Gal4-Nurr1 hybrid reporter gene assay in HEK293T cells; type: cell-based; design: expressed in transfected cells; host or cells: HEK293T; conditions: for max. activation: maximum effect vs. 0.1% DMSO control; for max. activation / EC50: mean±SD, n≥3; for EC50: Gal4-Nurr1 hybrid reporter gene assay; for EC50(Nurr1) (max. activation): result in words, at 100 µM
Method: (§1) Hybrid reporter gene assays. Nurr1 modulation was determined in a Gal4 hybrid reporter gene assay in HEK293T cells (German Collection of Microorganisms and Cell Culture GmbH, DSMZ) using pFR-Luc (Stratagene, La Jolla, CA, USA; reporter), pRL-SV40 (Promega, Madison, WI, USA; internal control) and pFA-CMV-hNurr1-LBD^14, coding for the hinge region and ligand binding domain of the canonical isoform of human Nurr1. […] After 24 h, medium was changed to Opti-MEM without supplements and cells were transiently transfected using Lipofectamine LTX reagent (Invitrogen, Carlsbad, CA, USA) according to the manufacturer's protocol. Five hours after transfection, cells were incubated with the test compounds in Opti-MEM supplemented with penicillin (100 U/mL), streptomycin (100 µg/mL) and 0.1% DMSO for 16 h before luciferase activity was measured using the Dual-Glo Luciferase Assay System (Promega) according to the manufacturer's protocol on a Tecan Spark luminometer (Tecan Deutschland GmbH, Crailsheim, Germany). Firefly luminescence was divided by Renilla luminescence and multiplied by 1000 resulting in relative light units (RLU) to normalize for transfection efficiency and cell growth. Fold activation was obtained by dividing the mean RLU of test compound by the mean RLU of the untreated control. All samples were tested in at least three biologically independent experiments in duplicates. For dose-response curve fitting and calculation of EC50 values, the equation "[Agonist] vs. response -- Variable slope (four parameters)" was used in GraphPad Prism (version 7.00, GraphPad Software, La Jolla, CA, USA). Selectivity profiling was performed with identical procedures using pFA-CMV-Nur77-LBD^14, pFA-CMV-NOR-1-LBD^14, pFA-CMV-THRα-LBD^39, pFA-CMV-RARα-LBD^40, pFA-CMV-PPARα-LBD^41, pFA-CMV-PPARγ-LBD^41, pFA-CMV-PPARδ-LBD^41, pFA-CMV-LXRα-LBD^37, pFA-CMV-FXR-LBD^42 and pFA-CMV-hRXRα-LBD^43.

Nur77 = molecular target: T1, Nur77 (Homo sapiens, UniProt P22736); assay: Gal4 hybrid reporter gene assay, selectivity profiling (Nur77); type: cell-based
T1 construct: expressed in transfected cells; host or cells: HEK293T
Method: as §1, with “For dose-response curve fitting and calculation of EC50 values, the equation "[Agonist] vs. response -- Variable slope (four parameters)" was used in GraphPad Prism (version 7.00, GraphPad Software, La Jolla, CA, USA). Selectivity profiling was performed with identical procedures using pFA-CMV-Nur77-LBD^14, pFA-CMV-NOR-1-LBD^14, pFA-CMV-THRα-LBD^39, pFA-CMV-RARα-LBD^40, pFA-CMV-PPARα-LBD^41, pFA-CMV-PPARγ-LBD^41, pFA-CMV-PPARδ-LBD^41, pFA-CMV-LXRα-LBD^37, pFA-CMV-FXR-LBD^42 and pFA-CMV-hRXRα-LBD^43.” left out

Nurr1 monomer (NBRE) = molecular target: T2, Nurr1 monomer (NBRE) (Homo sapiens, UniProt P43354); assay: Full-length Nurr1 reporter gene assay, response element NBRE; type: cell-based; conditions: result in words, at 1 µM
T2 construct: The full length human nuclear receptor Nurr1 (pcDNA3.1-hNurr1-NE; Addgene plasmid #102363); NE (suffix in the plasmid name); host or cells: HEK293T
Source text: (§2) Full-length Nurr1 reporter gene assays. Activation of full length human Nurr1 was studied in transiently transfected HEK293T cells using the reporter plasmids pFR-Luc-NBRE^14, pFR-Luc-POMC^14 or pFR-Luc-DR5^14 each containing one copy of the respective human Nurr1 response element NBRE Nl3, NurRE, or DR5. The full length human nuclear receptor Nurr1 (pcDNA3.1-hNurr1-NE; Addgene plasmid #102363) and, for DR5, RXRα (pSG5-hRXR)^44 were overexpressed. pRL-SV40 (Promega) was used for normalization of transfection efficacy and to observe test compound toxicity. […] After 24 h, medium was changed to Opti-MEM without supplements and cells were transiently transfected using Lipofectamine LTX reagent (invitrogen) according to the manufacturer's protocol. Five hours after transfection, cells were incubated with the test compounds in Opti-MEM supplemented with penicillin (100 U/mL), streptomycin (100 µg/mL) and 0.1% DMSO for 16 h before luciferase activity was measured using the Dual-Glo Luciferase Assay System (Promega) according to the manufacturer's protocol on a Tecan Spark luminometer (Tecan Deutschland GmbH). Firefly luminescence was divided by Renilla luminescence and multiplied by 1000 resulting in relative light units (RLU) to normalize for transfection efficiency and cell growth. […]

Nurr1 homodimer (NurRE) = molecular target: T3, Nurr1 homodimer (NurRE) (Homo sapiens, UniProt P43354); assay: Full-length Nurr1 reporter gene assay, response element NurRE; type: cell-based
T3 construct: The full length human nuclear receptor Nurr1 (pcDNA3.1-hNurr1-NE; Addgene plasmid #102363); host or cells: HEK293T
Source text: as §2

[1] = molecular target: T4, Nurr1-RXR heterodimer (DR5) (Homo sapiens, UniProt P43354); assay: Full-length Nurr1 reporter gene assay, response element DR5 with RXRα; type: cell-based
T4 construct: The full length human nuclear receptor Nurr1 (pcDNA3.1-hNurr1-NE; Addgene plasmid #102363); NE (suffix in the plasmid name); host or cells: HEK293T
Source text: Full-length Nurr1 reporter gene assays. Activation of full length human Nurr1 was studied in transiently transfected HEK293T cells using the reporter plasmids pFR-Luc-NBRE^14, pFR-Luc-POMC^14 or pFR-Luc-DR5^14 each containing one copy of the respective human Nurr1 response element NBRE Nl3, NurRE, or DR5. The full length human nuclear receptor Nurr1 (pcDNA3.1-hNurr1-NE; Addgene plasmid #102363) and, for DR5, RXRα (pSG5-hRXR)^44 were overexpressed. pRL-SV40 (Promega) was used for normalization of transfection efficacy and to observe test compound toxicity. […] After 24 h, medium was changed to Opti-MEM without supplements and cells were transiently transfected using Lipofectamine LTX reagent (invitrogen) according to the manufacturer's protocol. Five hours after transfection, cells were incubated with the test compounds in Opti-MEM supplemented with penicillin (100 U/mL), streptomycin (100 µg/mL) and 0.1% DMSO for 16 h before luciferase activity was measured using the Dual-Glo Luciferase Assay System (Promega) according to the manufacturer's protocol on a Tecan Spark luminometer (Tecan Deutschland GmbH). Firefly luminescence was divided by Renilla luminescence and multiplied by 1000 resulting in relative light units (RLU) to normalize for transfection efficiency and cell growth. Fold activation was obtained by dividing the mean RLU of test compound by the mean RLU of the untreated control. All samples were tested in at least three biologically independent experiments in duplicates. For dose-response curve fitting and calculation of EC50 values, the equation "[Agonist] vs. response -- Variable slope (four parameters)" was used in GraphPad Prism (version 7.00, GraphPad Software).

Nurr1 LBD = molecular target: T5, Nurr1 LBD (Homo sapiens, UniProt P43354); assay: Isothermal titration calorimetry (ITC); type: binding; conditions: ITC at 25°C
T5 construct: Nurr1 LBD protein (10-30 µM, expressed as described previously^21); made in house
Method: Isothermal Titration Calorimetry (ITC). ITC experiments were conducted on an Affinity ITC instrument (TA Instruments, New Castle, DE) at 25°C with a stirring rate of 75 rpm. Nurr1 LBD protein (10-30 µM, expressed as described previously^21) in buffer (20 mM Tris pH 7.5, 100 mM NaCl, 5% glycerol) containing 1-4% DMSO was titrated with the test compounds (60-150 µM in the same buffer containing 1-4% DMSO) in 26 injections (1x 1 µL, 25x 3-4 µL) with an injection interval of 150 s. As control experiments, the test compounds were titrated to the buffer, and the buffer was titrated to the Nurr1 LBD protein under otherwise identical conditions. Results were analyzed using NanoAnalyze software (version 3.11.0, TA Instruments, New Castle, DE) with independent binding models.

[2] = test system: Nurr1-regulated tyrosine hydroxylase (TH), vesicular amino acid transporter 2 (VMAT2) and superoxide dismutase 2 (SOD2) in astrocytes (T98G); assay: Nurr1-regulated gene expression in T98G cells (qPCR); type: cell-based, human; conditions: 0.1 µM, 0.3 µM, mRNA vs. DMSO control
[3] = Determination of aqueous solubility; type: physicochemical; conditions: water, 24 h, 25°C
Method: Determination of aqueous solubility. […] The mixture was agitated in a VWR Thermal Shake lite (VWR International GmbH, Darmstadt, Germany) for 24 h at 600 rpm and constant temperature of 25°C. The supersaturated mixtures were subsequently centrifuged at 23.300 rpm for 15 min (25 °C). Part of the supernatant was taken off for quantification by UV absorbance at 312 nm with external calibration. The external calibration samples contained 1% DMSO and the test samples were spiked with DMSO to 1% concentration right before the measurement. Absorbance was measured with a Tecan Spark luminometer (Tecan Deutschland GmbH, Crailsheim, Germany). The solubility test was repeated in three independent experiments, […]

[4] = test system: THRα, RARα, PPARα, PPARγ, PPARδ, LXRα, FXR, RXRα; assay: Selectivity screening on nuclear receptors outside the NR4A family (Gal4 hybrid reporter gene assays); type: cell-based
Method: as §1, with “For dose-response curve fitting and calculation of EC50 values, the equation "[Agonist] vs. response -- Variable slope (four parameters)" was used in GraphPad Prism (version 7.00, GraphPad Software, La Jolla, CA, USA). Selectivity profiling was performed with identical procedures using pFA-CMV-Nur77-LBD^14, pFA-CMV-NOR-1-LBD^14, pFA-CMV-THRα-LBD^39, pFA-CMV-RARα-LBD^40, pFA-CMV-PPARα-LBD^41, pFA-CMV-PPARγ-LBD^41, pFA-CMV-PPARδ-LBD^41, pFA-CMV-LXRα-LBD^37, pFA-CMV-FXR-LBD^42 and pFA-CMV-hRXRα-LBD^43.” left out

Chain of Nurr1 (P43354 360-595 limits assumed): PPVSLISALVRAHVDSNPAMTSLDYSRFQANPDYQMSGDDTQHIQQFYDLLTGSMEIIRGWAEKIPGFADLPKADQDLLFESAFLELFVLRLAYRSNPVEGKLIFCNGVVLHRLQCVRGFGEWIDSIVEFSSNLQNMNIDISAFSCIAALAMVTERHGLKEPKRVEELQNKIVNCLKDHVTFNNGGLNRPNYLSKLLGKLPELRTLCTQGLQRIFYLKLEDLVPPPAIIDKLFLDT
T4 sequence (P43354 whole entry): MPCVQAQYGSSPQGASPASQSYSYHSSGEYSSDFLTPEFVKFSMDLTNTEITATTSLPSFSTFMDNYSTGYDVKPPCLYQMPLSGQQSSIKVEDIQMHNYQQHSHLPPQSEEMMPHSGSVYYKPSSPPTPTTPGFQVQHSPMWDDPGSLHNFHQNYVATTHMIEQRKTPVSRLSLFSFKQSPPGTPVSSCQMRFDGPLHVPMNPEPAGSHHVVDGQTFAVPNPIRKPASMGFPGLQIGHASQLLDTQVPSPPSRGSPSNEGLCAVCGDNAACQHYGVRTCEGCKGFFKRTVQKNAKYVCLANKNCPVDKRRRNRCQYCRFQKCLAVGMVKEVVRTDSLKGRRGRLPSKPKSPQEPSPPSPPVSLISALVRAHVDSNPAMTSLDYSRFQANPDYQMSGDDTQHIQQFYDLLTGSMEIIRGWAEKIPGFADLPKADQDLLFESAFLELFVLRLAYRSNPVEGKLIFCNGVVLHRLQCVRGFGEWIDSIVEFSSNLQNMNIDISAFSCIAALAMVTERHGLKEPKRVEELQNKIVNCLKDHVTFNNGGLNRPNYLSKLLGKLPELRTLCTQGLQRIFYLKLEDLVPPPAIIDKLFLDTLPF
T4 sequence (P19793 whole entry partner): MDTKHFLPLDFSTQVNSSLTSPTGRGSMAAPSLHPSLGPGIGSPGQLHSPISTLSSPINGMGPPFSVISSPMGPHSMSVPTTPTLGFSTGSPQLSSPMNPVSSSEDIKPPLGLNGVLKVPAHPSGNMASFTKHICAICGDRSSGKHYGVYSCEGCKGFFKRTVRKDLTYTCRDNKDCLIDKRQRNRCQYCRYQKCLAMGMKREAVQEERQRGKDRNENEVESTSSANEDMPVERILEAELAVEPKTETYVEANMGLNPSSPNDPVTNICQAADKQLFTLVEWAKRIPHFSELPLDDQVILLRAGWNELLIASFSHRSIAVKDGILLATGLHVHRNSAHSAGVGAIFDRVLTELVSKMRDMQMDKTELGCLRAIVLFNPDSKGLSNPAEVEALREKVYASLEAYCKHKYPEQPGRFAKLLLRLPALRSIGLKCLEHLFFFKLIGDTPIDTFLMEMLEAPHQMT
T5 sequence (P43354 360-595 limits assumed): as the sequence (P43354 360-595 limits assumed) above
T2 sequence (P43354 whole entry): as the sequence (P43354 whole entry) above
T3 sequence (P43354 whole entry): as above
T1 sequence (P22736 360-595 limits assumed): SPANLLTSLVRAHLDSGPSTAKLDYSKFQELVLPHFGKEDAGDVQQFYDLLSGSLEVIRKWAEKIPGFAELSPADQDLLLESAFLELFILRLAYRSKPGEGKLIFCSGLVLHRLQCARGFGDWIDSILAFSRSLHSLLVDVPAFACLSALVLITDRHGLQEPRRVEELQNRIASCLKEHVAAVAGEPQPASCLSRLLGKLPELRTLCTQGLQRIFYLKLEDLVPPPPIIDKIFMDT

SMILES	max. activation (Nurr1)	EC50 (Nurr1)	further results
Nc1c(-c2cccc(C(F)(F)F)c2)nc2c(Cl)cccn12 [Compound 23]	< 1.2-fold act.		
Cc1nc2c(Cl)cccn2c1NC(=O)c1ccc(-c2ccc(N(C)C)cc2)o1 [Compound 36, N-(8-Chloro-2-methylimidazo[1,2-a]pyridin-3-yl)-5-(4-(dimethylamino)phenyl)furan-2-carboxamide]		0.09 ± 0.005 µM	EC50 (Nur77): 0.33 ± 0.04 µM; EC50(NBRE) (Nurr1 monomer (NBRE)): inactive; also recorded: no activation (1 µM); EC50 (Nurr1 homodimer (NurRE)): 0.094 ± 0.003 µM; enhancement of potency by bexarotene (factor) ([1]; DR5, 0.1 µM BEX): > 5; EC50 ([1]; with 0.1 µM bexarotene (BEX)): 0.033 µM; EC50 ([1]; without bexarotene, read-out: EC50(DR5)): 0.165 µM; Kd (Nurr1 LBD): 0.17 µM; expression of superoxide dismutase 2 (SOD2) [2]: induced expression; expression of tyrosine hydroxylase (TH) [2]: induced expression; expression of vesicular amino acid transporter 2 (VMAT2) [2]: induced expression; aq. solubility [3]: 6.8 µg/mL; selectivity ([4]; Nurr1 vs. nuclear receptors outside the NR4A family): > 30 fold; activity outside the NR4A family ([4]; at 3 µM, n=3): no off-target activity
Cc1nc2c(Cl)cccn2c1NC(=O)c1ccc(-c2ccc(Cl)cc2)o1 [Compound 26]	1.8±0.1 fold	1.6 ± 0.5 µM	Kd (Nurr1 LBD): 0.7 µM
Cc1ccc(-c2nc3c(Cl)cccn3c2N)cc1 [Compound 20]	2.0±0.2 fold	12 ± 2 µM	
Cc1nc2c(Cl)cccn2c1NC(=O)c1ccc(-c2ccc(C(F)(F)F)cc2)o1 [Compound 31]		1.1 ± 0.3 µM	
Nc1c(-c2cccc(Cl)c2)nc2c(Cl)cccn12 [Compound 18]	1.7±0.1 fold	9 ± 3 µM	
Nc1cnc2c(Cl)cccn12 [Compound 12, 3-Amino-8-chloroimidazo[1,2-a]pyridine]			EC50(Nurr1) (max. activation) (Nurr1): inactive (100 µM)
Cc1nc2c(Cl)cccn2c1NC(=O)c1ccc(-c2ccccc2)s1 [Compound 28]	2.1±0.1 fold	3.2 ± 0.4 µM	
Cc1ccc(-c2ccc(C(=O)Nc3c(C)nc4c(Cl)cccn34)o2)cc1 [Compound 32]	2.0±0.2 fold	0.13 ± 0.02 µM	
Cc1ccc(-c2nc3c(Cl)cccn3c2N)cc1C [Compound 25]	1.6±0.1 fold	14 ± 2 µM	
Cc1nc2c(Cl)cccn2c1NC(=O)c1ccc(-c2ccccc2)o1 [Compound 27]	2.1±0.1 fold	4 ± 1 µM	
Nc1c(-c2ccccc2)nc2c(Cl)cccn12 [Compound 15]	1.4±0.1 fold		
CNc1ccc(-c2ccc(C(=O)Nc3c(C)nc4c(Cl)cccn34)o2)cc1 [Compound 35]		0.3 ± 0.02 µM	
Nc1c(-c2ccoc2)nc2c(Cl)cccn12 [Compound 16]	< 1.2 fold		EC50(Nurr1) (max. activation) (Nurr1): inactive
Cc1nc2cccc(Cl)c2[nH]1 [Compound 7, 4-Chloro-2-methyl-benzimidazole]			EC50(Nurr1) (max. activation) (Nurr1): failed to activate Nurr1; also recorded: inactive (100 µM)
